Assay results taken from patent publication US9206236B2, “Peptides for treating cancer” (Gene Signal International SA, priority 2010, dated 2015).

How the values were obtained:
NCI-H460 tumors = experiment: NCI-H460 tumor xenograft in nude mice, tumor volume (Example 3); assay type: in vivo
Method: H460 cell line has cytology compatible with human Non-Small Cell Lung Cancer (NSCL). Cells were grown in MEM medium containing 10% FCS at 37° C., 5% CO2 humidified atmosphere. The absence of mycoplasms was confirmed by using the PCR Mycoplasma Detection kit (Takara). All experiments were reviewed by the Genopole's institutional animal care and use committee and were performed in accordance with institutional guidelines for animal care. Female BALB/c nu/nu mice (n=30) were used at 5-6 weeks of age. The animals were housed in laminar air-flow cabinets under pathogen-free conditions with a 12 h light/12 h dark schedule, and fed autoclaved standard chow and water ad libitum. The NCI-H460 human NSCL cell line was obtained from American Type Culture Collection (ATCC) were grown in RPMI medium 1640 supplemented with 1 μM sodium pyruvate. Tumor cells (10^7 cells in 200 μl of HBSS) were injected subcutaneously into the right flanks of mice. After engraftment, tumor volume was measured by Vernier callipers, and calculated as described in Balsam A et al. (Balsari A et al. (2004) Eur J Cancer 40: 1275-1281). At tumor volume about 150 mm^3, animals were randomized, and separated into five groups of five animals. Control mice (group 1) were intraperitoneally injected with vehicle (10% DMSO in buffer saline) every day. GS-0 was dissolved in vehicle and intraperitoneally injected (group 2) every day (12 injections). GS-2 was dissolved in vehicle and intraperitoneally injected (group 3) every day (12 injections). Tumor volume and body weight were measured every other day over the treatment period (12 days). GS-2 as well as the control peptide GS-0 were solubilized in DMSO and the resulting solutions were diluted 10 times with phosphate buffer saline (PBS) to obtain a concentration of 1 mg of peptide/ml of 10% DMSO in PBS. At this concentration, all peptides were soluble in 10% DMSO.

[1] = target: T1, recruitment of the regulatory subunit (p85) of the enzyme PI-3K by IRS-1 (Homo sapiens, UniProt P27986); experiment: Recruitment of p85 of PI-3K by IRS-1 (IRS-1 immunoprecipitation, anti-p85 immunoblot) in HMEC; assay type: cell-based; settings: final concentration of peptide 500 μg/ml
T1 construct: endogenous in cells; host or cells: human microvascular endothelial cells (HMEC)
T1 sequence (P27986 whole entry): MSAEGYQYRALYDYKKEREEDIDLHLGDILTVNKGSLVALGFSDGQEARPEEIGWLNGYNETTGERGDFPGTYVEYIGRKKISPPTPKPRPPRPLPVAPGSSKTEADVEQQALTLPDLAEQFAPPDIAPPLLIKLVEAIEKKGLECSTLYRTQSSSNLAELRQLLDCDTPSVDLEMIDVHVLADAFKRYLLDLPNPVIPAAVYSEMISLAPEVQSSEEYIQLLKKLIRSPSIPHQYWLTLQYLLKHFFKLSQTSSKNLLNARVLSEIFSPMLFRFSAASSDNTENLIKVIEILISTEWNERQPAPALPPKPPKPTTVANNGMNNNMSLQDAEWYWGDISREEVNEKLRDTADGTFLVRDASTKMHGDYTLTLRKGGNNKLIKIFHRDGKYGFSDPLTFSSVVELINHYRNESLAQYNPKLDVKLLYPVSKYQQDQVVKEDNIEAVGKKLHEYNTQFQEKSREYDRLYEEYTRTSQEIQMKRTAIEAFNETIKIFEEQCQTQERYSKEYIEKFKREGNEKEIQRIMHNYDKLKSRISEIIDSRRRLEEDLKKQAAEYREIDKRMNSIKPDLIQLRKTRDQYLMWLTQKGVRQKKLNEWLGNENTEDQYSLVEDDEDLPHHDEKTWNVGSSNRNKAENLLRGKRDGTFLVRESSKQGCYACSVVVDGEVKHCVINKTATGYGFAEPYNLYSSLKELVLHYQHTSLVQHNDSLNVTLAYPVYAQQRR
Method: Human EC grown in EGM-2MV (80% confluence) were incubated with the peptides of the invention or vehicle for the indicated time, washed three times in cold PBS and directly lysed in 2 ml of ice-cold lysis buffer (10 mM Tris pH 7.5, 150 mM NaCl, 1 mM PMSF, 0.5 μg/ml leupeptin, 1 μg/ml pepstatin A, and 1 μg/ml aprotinin) by incubation for 30 min at 4° C. Cell lysate were spun at […] for 10 min, insoluble materials were discarded, and protein contents measured by Bradford assay of supernatants were adjusted. Cell lysate (1 ml) was precleared with 25 μl of protein G-plus agarose beads (Santa Cruz) for 30 min, and proteins were then immunoprecipitated by adding 2 μg of the indicated antibody and incubated for 1 hr. The immunocomplex was pulled down with protein G-plus agarose beads and the beads were washed three times with lysis buffer. The immunoprecipitates were separated by NuPAGE® 4-12% Bis-Tris gel electrophoresis under reducing conditions, transferred to PVDF membrane (Novex System, Invitrogen), and the membrane was blocked with 5% (w/v) non-fat milk in TBS containing 0.1% v/v Tween-20 for 1 hr.
As it is widely admitted that the tyrosine phosphorylation of IRS-1 leads to its association with the regulatory subunit (p85) of the enzyme PI-3K, and this event lead to important increases in the enzymatic activity of this later, we have investigated the influence of the tyrosine phosphorylated and non phosphorylated peptides onto the recruitment of the regulatory subunit (p85) of the enzyme PI-3K by IRS-1. For that, human microvascular endothelial cells (HMEC) were incubated with the tyrosine phosphorylated and non phosphorylated peptides (final concentration of peptide 500 μg/ml) followed by cells lysis and immuoprecipitation of the protein IRS-1. The immunoprecipitates were then resolved in SDS-PAGE, proteins were transferred to membranes, and the membranes were immunoblotted with an anti-p85 PI3K monoclonal antibody.

[2] = Body weight and toxicity of mice bearing NCI-H460 tumors (Example 2); assay type: in vivo
Method: All experiments were reviewed by the Genopole's institutional animal care and use committee and were performed in accordance with institutional guidelines for animal care. Female BALB/c nu/nu mice (n=30) were used at 5-6 weeks of age. The animals were housed in laminar air-flow cabinets under pathogen-free conditions with a 12 h light/12 h dark schedule, and fed autoclaved standard chow and water ad libitum. […] Tumor cells (10^7 cells in 200 μl of HBSS) were injected subcutaneously into the right flanks of mice. […] At tumor volume about 150 mm3, animals were randomized, and separated into five groups of five animals. Control mice (group 1) were intraperitoneally injected with vehicle (10% DMSO in buffer saline) every day. GS-0 was dissolved in vehicle and intraperitoneally injected (group 2) every day (12 injections). GS-1 was dissolved in vehicle and intraperitoneally injected (group 3) every day (12 injections). Tumor volume and body weight were measured every other day over the treatment period (12 days).

[3] = Solubility of peptides in 10% DMSO in PBS; assay type: physicochemical; settings: 1 mg of peptide/ml of 10% DMSO in PBS
Method: GS-1 as well as the control peptide GS-0 were solubilized in DMSO and the resulting solutions were diluted 10 times with phosphate buffer saline (PBS) to obtain a concentration of 1 mg of peptide/ml of 10% DMSO in PBS. At this concentration, all peptides were soluble in 10% DMSO.
GS-2 as well as the control peptide GS-0 were solubilized in DMSO and the resulting solutions were diluted 10 times with phosphate buffer saline (PBS) to obtain a concentration of 1 mg of peptide/ml of 10% DMSO in PBS. At this concentration, all peptides were soluble in 10% DMSO.

**Q.** Which results are given for “Ac-NYICMG-NH2 [GS-0, NYICMG, reference compound]”?
**A.** influence on the in vivo growth of the tumor NCI-H460 (in words) (NCI-H460 tumors; 8 mg/kg i.p. daily for 12 days): no significant influence; mean tumor volume at the end of treatment (NCI-H460 tumors; 8 mg/kg i.p. daily for 12 days, n=5): 1114.83 ± 534.50 mm^3; Mean tumor volume D1 (NCI-H460 tumors; Table 4, 8 mg/kg i.p. daily, day 1): 123 mm³; Mean tumor volume D3 (NCI-H460 tumors; Table 4, 8 mg/kg i.p. daily, day 3): 233 mm³; Mean tumor volume D5 (NCI-H460 tumors; Table 4, 8 mg/kg i.p. daily, day 5): 335 mm³; Mean tumor volume D7 (NCI-H460 tumors; Table 4, 8 mg/kg i.p. daily, day 7): 402 mm³; Mean tumor volume D9 (NCI-H460 tumors; Table 4, 8 mg/kg i.p. daily, day 9): 553 mm³; Mean tumor volume D11 (NCI-H460 tumors; Table 4, 8 mg/kg i.p. daily, day 11): 751 mm³; Mean tumor volume D13 (NCI-H460 tumors; Table 4, 8 mg/kg i.p. daily, day 13): 1110 mm³; influence onto the recruitment of the regulatory subunit (p85) of PI3K by IRS-1 [1]: no and/or negligible influence; toxicity and body weight loss during treatment ([2]; 8 mg/kg intraperitoneally every day, 12 injections): No toxicity and no body weight loss; Mean body weight D1 ([2]; Table 1, 8 mg/kg i.p. daily, day 1, in g): 20.91; Mean body weight D3 ([2]; Table 1, 8 mg/kg i.p. daily, day 3, in g): 21.37; Mean body weight D5 ([2]; Table 1, 8 mg/kg i.p. daily, day 5, in g): 21.65; Mean body weight D7 ([2]; Table 1, 8 mg/kg i.p. daily, day 7, in g): 21.81; Mean body weight D9 ([2]; Table 1, 8 mg/kg i.p. daily, day 9, in g): 22.52; Mean body weight D11 ([2]; Table 1, 8 mg/kg i.p. daily, day 11, in g): 22.76; Mean body weight D13 ([2]; Table 1, 8 mg/kg i.p. daily, day 13, in g): 22.36; solubility in 10% DMSO [3]: soluble
